Data taken from patent publication US12325709B2, “Cannabinoid derivatives” (CANOPY GROWTH CORPORATION, priority 2019, dated 2025).
pIC50: −log10 of the molar value.

Columns and labels:
human CB2 receptor = biological target: T1, human CB2 receptor (Homo sapiens, UniProt P34972); experiment: CB2 radioligand competitive binding assay ([3H]CP 55,940 displacement); settings: for Selectivity CB2: fold difference in binding between CB1 and CB2, shown in column of receptor with higher affinity, 1.00 in both = about the same affinity
T1 construct: host or cells: CHO-K1 (Chinese hamster ovary) cells, stably transfected; membranes prepared in house
Procedure: Compounds of the present disclosure were tested for CB1 receptor binding affinity and for CB2 receptor binding affinity. As used herein, “binding affinity” is represented by the IC50 value, which was experimentally determined as described herein. The lower the IC50 value the higher the binding affinity.
The membranes were prepared from CHO-K1 (Chinese hamster ovary) cells stably transfected with the human CB2 receptor (Cat. #ES-111-C; Perkin Elmer, Boston, MA). The cells were grown adherently and maintained in Ham's F12 medium containing 10% fetal bovine serum (FBS), penicillin, streptomycin and geneticin (G418) at 37° C. in a humid atmosphere of 5% CO2 following the manufacturer's instructions.
For membrane preparation the cells were washed with PBS and scraped off the plates in cold homogenization buffer (25 mM HEPES (pH 7.4), 2 mM EDTA) containing protease inhibitor cocktail (Sigma Cat. #P8340). The cell suspension was homogenized with a Pro-PK-01200D Polytron Homogenizer (Pro Scientific) and then centrifuged for 30 min at 120,000×g. The supernatant was discarded and the pellet was re-suspended in the homogenization buffer and stored at −80° C. until the time of use.
In this experiment, 3H radiolabeled CP 55,940, i.e. [3H]CP 55,940 (Perkin Elmer, Boston, MA), was used as a radioligand for the CB2 receptor to determine the binding affinity of compounds for the CB2 receptor (Scheme 3; above).
The competition binding experiments (single dose and dose-response) were performed by incubating 0.6 nM of [3H]CP55,940 (specific activity 101 Ci/mmol, Perkin Elmer) and different concentrations of compounds disclosed herein with membranes prepared as above from CHO-K1 cells expressing human CB2 receptor (1 μg of protein/well), 50 mM Tris-HCl (pH 7.4), 5 mM MgCl2, 1 mM CaCl2, and 2 mg/mL BSA.
For the dose-response experiments the test compounds were sequentially diluted to provide the desired concentration range for the IC50 determination. In each case the compounds were pre-incubated with the membrane for 20 min, before adding the radioligand.
After incubation with the radioligand for 60 min at 37° C., the incubation was terminated by rapid filtration of assay mixture through MultiScreen®HTS^+ 96-well filter plates (Millipore, Cat. #MSFCNXB), pre-soaked for 60 min with 50 mM Tris-HCl (pH 7.4) containing 0.33% polyethylenimine (PEI). The nonspecific binding (NSB) was determined in the presence of 10 μM unlabelled CP55,940. After drying the filter plate at 50° C. for at least 60 min, the filter-bound radioactivity was determined by scintillation spectrometry using the 1450 MicroBeta Plate Counter (Perkin Elmer, Boston, MA).

human CB1 receptor = biological target: T2, human CB1 receptor (Homo sapiens, UniProt P21554); experiment: CB1 radioligand competitive binding assay ([3H]CP 55,940 displacement); settings: for Selectivity CB1: fold difference in binding between CB1 and CB2, shown in column of receptor with higher affinity, 1.00 in both = about the same affinity
T2 construct: host or cells: CHO-K1 (Chinese hamster ovary) cells, stably transfected; membranes prepared in house
T2 sequence (P21554 whole entry): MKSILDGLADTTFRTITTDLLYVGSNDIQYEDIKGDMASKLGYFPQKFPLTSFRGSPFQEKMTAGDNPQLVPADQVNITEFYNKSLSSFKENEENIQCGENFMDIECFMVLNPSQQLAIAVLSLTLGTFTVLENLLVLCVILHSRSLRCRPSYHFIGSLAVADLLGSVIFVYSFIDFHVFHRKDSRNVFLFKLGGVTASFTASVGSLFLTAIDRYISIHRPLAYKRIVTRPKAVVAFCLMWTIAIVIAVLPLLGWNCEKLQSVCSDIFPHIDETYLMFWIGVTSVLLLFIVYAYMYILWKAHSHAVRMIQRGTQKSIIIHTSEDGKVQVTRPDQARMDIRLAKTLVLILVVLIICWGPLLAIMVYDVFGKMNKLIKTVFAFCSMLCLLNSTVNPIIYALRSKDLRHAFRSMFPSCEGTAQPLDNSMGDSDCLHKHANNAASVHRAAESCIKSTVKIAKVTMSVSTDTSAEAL

T1 sequence (P34972 whole entry): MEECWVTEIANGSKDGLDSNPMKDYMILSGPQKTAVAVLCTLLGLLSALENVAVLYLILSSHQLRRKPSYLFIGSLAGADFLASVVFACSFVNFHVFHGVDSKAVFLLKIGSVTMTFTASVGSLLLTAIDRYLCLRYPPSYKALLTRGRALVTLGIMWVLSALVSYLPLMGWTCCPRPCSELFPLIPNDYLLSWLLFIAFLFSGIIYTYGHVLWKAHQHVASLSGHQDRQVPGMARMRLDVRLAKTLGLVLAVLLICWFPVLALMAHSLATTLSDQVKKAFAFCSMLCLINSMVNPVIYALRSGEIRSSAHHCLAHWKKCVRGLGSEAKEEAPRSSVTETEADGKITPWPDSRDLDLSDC

Row | Compound | pIC50 (human CB2 receptor) | Selectivity CB2 (human CB2 receptor) | pIC50 (human CB1 receptor) | Selectivity CB1 (human CB1 receptor)
1 | CCCCCc1cc(O)c(C2C=C(C)CCC2)c(O)c1C(=O)NCc1ccccc1 (stereo not shown) [Compound 14c, N-benzyl-2,6-dihydroxy-5′-methyl-4-pentyl-1′,2′,3′,4′-tetrahydro-[1,1′-biphenyl]-3-carboxamide] | > 7.00 | 1300.00 fold | 5.30 to 6.00 | 
2 | C=C(C)[C@@H]1CCC(C)=C[C@H]1c1c(O)cc(CCCCC)c(C(=O)Nc2ccc(OC)cc2)c1O [Compound 11d, 2,6-dihydroxy-N-(4-methoxyphenyl)-5′-methyl-4-pentyl-2′-(prop-1-en-2-yl)-1′,2′,3′,4′-tetrahydro-[1,1′-biphenyl]-3-carboxamide] | 6.00 to 7.00 | 3.11 fold | 5.30 to 6.00 | 
3 | CCCCCc1cc(O)c(C2C=C(C)CCC2)c(O)c1C(=O)NC1CC1 (stereo not shown) [Compound 6c, N-cyclopropyl-2,6-dihydroxy-5′-methyl-4-pentyl-1′,2′,3′,4′-tetrahydro-[1,1′-biphenyl]-3-carboxamide] | > 7.00 | 40.14 fold | 5.30 to 6.00 | 
4 | CCCCCc1cc(O)c(C2C=C(C)CCC2)c(O)c1C(=O)N1CCCC1 (stereo not shown) [Compound 41c, (2,6-dihydroxy-5′-methyl-4-pentyl-1′,2′,3′,4′-tetrahydro-[1,1′-biphenyl]-3-yl)(pyrrolidin-1-yl)methanone] | 5.30 to 6.00 | 13.31 fold | < 5.30 | 
5 | CCCc1c(CN(C)C(=O)OC)c(O)c(C2C=C(C)CCC2)c(O)c1CN(C)C(=O)OC (stereo not shown) [59′c, dimethyl ((2,6-dihydroxy-5′-methyl-4-propyl-1′,2′,3′,4′-tetrahydro-[1,1′-biphenyl]-3,5-diyl)bis(methylene))bis(methylcarbamate)] | 6.00 to 7.00 | 3.25 fold | 5.30 to 6.00 | 
6 | C=C(C)[C@@H]1CCC(C)=C[C@H]1c1c(O)cc(CCCCC)c(C(=O)NC2CC2)c1O [Compound 6d, N-cyclopropyl-2,6-dihydroxy-5′-methyl-4-pentyl-2′-(prop-1-en-2-yl)-1′,2′,3′,4′-tetrahydro-[1,1′-biphenyl]-3-carboxamide] | 5.30 to 6.00 | 9.09 fold | < 5.30 | 
7 | CCCCCc1cc(O)c(-c2cccc(C)c2)c(O)c1C(=O)NCc1cccnc1 [Compound 15a, 2,6-dihydroxy-3′-methyl-4-pentyl-N-(pyridin-3-ylmethyl)-[1,1′-biphenyl]-3-carboxamide] | 6.00 to 7.00 | 17.62 fold | < 5.30 | 
8 | CCCCCc1cc(O)c(C2C=C(C)CCC2)c(O)c1C(=O)NC1CCCC1 (stereo not shown) [Compound 7c, N-cyclopentyl-2,6-dihydroxy-5′-methyl-4-pentyl-1′,2′,3′,4′-tetrahydro-[1,1′-biphenyl]-3-carboxamide] | > 7.00 | 188.10 fold | 6.00 to 7.00 | 
9 | C=C(C)[C@@H]1CCC(C)=C[C@H]1c1c(O)cc(CCCCC)c(C(=O)NC)c1O [Compound 1d, 2,6-dihydroxy-N,5′-dimethyl-4-pentyl-2′-(prop-1-en-2-yl)-1′,2′,3′,4′-tetrahydro-[1,1′-biphenyl]-3-carboxamide] | 6.00 to 7.00 | 1.26 fold | 5.30 to 6.00 | 
10 | CCCCCc1cc(O)c(C2C=C(C)CCC2)c(O)c1C(N)=O (stereo not shown) [Compound 58c, 2,6-dihydroxy-5′-methyl-4-pentyl-1′,2′,3′,4′-tetrahydro-[1,1′-biphenyl]-3-carboxamide] | 5.30 to 6.00 | 11.83 fold | < 5.30 | 
11 | CCCCCc1cc(O)c(C2C=C(C)CCC2)c(O)c1C(=O)NCc1cccnc1 (stereo not shown) [Compound 15c, 2,6-dihydroxy-5′-methyl-4-pentyl-N-(pyridin-3-ylmethyl)-1′,2′,3′,4′-tetrahydro-[1,1′-biphenyl]-3-carboxamide] | > 7.00 | 23.17 fold | 5.30 to 6.00 | 
12 | C=C(C)[C@@H]1CCC(C)=C[C@H]1c1c(O)cc(CCC)c(C(=O)NC)c1O [Compound 96d, 2,6-dihydroxy-N,5′-dimethyl-2′-(prop-1-en-2-yl)-4-propyl-1′,2′,3′,4′-tetrahydro-[1,1′-biphenyl]-3-carboxamide] | < 5.30 | 2.59 fold | < 5.30 | 
13 | C=C(C)[C@@H]1CCC(C)=C[C@H]1c1c(O)cc(CCCCC)c(C(=O)NCc2cccnc2)c1O [Compound 15d, 2,6-dihydroxy-5′-methyl-4-pentyl-2′-(prop-1-en-2-yl)-N-(pyridin-3-ylmethyl)-1′,2′,3′,4′-tetrahydro-[1,1′-biphenyl]-3-carboxamide] | 6.00 to 7.00 |  | 6.00 to 7.00 | 2.48 fold
14 | CCCCCc1cc(O)c(C2C=C(C)CCC2)c(O)c1CN(C)C(=O)OC (stereo not shown) [Compound 59c, methyl ((2,6-dihydroxy-5′-methyl-4-pentyl-1′,2′,3′,4′-tetrahydro-[1,1′-biphenyl]-3-yl)methyl)(methyl)carbamate] | > 7.00 | 9.26 fold | 6.00 to 7.00 | 
15 | CCCCCc1cc(O)c(C2C=C(C)CCC2)c(O)c1C(=O)NC (stereo not shown) [Compound 1c, 2,6-dihydroxy-N,5′-dimethyl-4-pentyl-1′,2′,3′,4′-tetrahydro-[1,1′-biphenyl]-3-carboxamide] | 5.30 to 6.00 | 3.20 fold | < 5.30 | 
16 | C=CCNC(=O)c1c(CCCCC)cc(O)c(C2C=C(C)CCC2)c1O (stereo not shown) [Compound 25c, N-allyl-2,6-dihydroxy-5′-methyl-4-pentyl-1′,2′,3′,4′-tetrahydro-[1,1′-biphenyl]-3-carboxamide] | 6.00 to 7.00 | 16.53 fold | 5.30 to 6.00 | 
17 | C=C(C)[C@@H]1CCC(C)=C[C@H]1c1c(O)cc(CCCCC)c(C(=O)N2CCOCC2)c1O [Compound 39d, (2,6-dihydroxy-5′-methyl-4-pentyl-2′-(prop-1-en-2-yl)-1′,2′,3′,4′-tetrahydro-[1,1′-biphenyl]-3-yl)(morpholino)methanone] | 5.30 to 6.00 | 3.49 fold | < 5.30 | 
18 | CCCCCc1cc(O)c(-c2cccc(C)c2)c(O)c1CN(C)C(=O)OC [Compound 59a, methyl ((2,6-dihydroxy-3′-methyl-4-pentyl-[1,1′-biphenyl]-3-yl)methyl)(methyl)carbamate] | > 7.00 | 10.91 fold | 6.00 to 7.00 | 
19 | CCCCCc1cc(O)c(C2C=C(C)CCC2)c(O)c1C(=O)N1CCOCC1 (stereo not shown) [Compound 39c, (2,6-dihydroxy-5′-methyl-4-pentyl-1′,2′,3′,4′-tetrahydro-[1,1′-biphenyl]-3-yl)(morpholino)methanone] | 5.30 to 6.00 | 3.20 fold | 5.30 to 6.00 | 
20 | CCCCCc1cc(O)c(C2C=C(C)CCC2)c(O)c1C(=O)N1CCn2cnnc2C1 (stereo not shown) [Compound 34c, (5,6-dihydro-[1,2,4]triazolo[4,3-a]pyrazin-7(8H)-yl)(2,6-dihydroxy-5′-methyl-4-pentyl-1′,2′,3′,4′-tetrahydro-[1,1′-biphenyl]-3-yl)methanone] | < 5.30 | 1.00 fold | < 5.30 | 1.00 fold
21 | C=C(C)[C@@H]1CCC(C)=C[C@H]1c1c(O)cc(CCCCC)c(C(=O)NCC)c1O [Compound 3d, N-ethyl-2,6-dihydroxy-5′-methyl-4-pentyl-2′-(prop-1-en-2-yl)-1′,2′,3′,4′-tetrahydro-[1,1′-biphenyl]-3-carboxamide] | 5.30 to 6.00 | 1.80 fold | 5.30 to 6.00 | 
22 | CCCCCc1cc(O)c(-c2cccc(C)c2)c(O)c1C(=O)N1CCOCC1 [Compound 39a, (2,6-dihydroxy-3′-methyl-4-pentyl-[1,1′-biphenyl]-3-yl)(morpholino)methanone] | < 5.30 | 3.70 fold | < 5.30 | 
23 | C=C(C)C1CCC(C)=CC1c1c(O)cc(CCCCC)c(C(=O)NCc2ccccc2)c1O (stereo not shown) [Compound 14d, N-benzyl-2,6-dihydroxy-5′-methyl-4-pentyl-2′-(prop-1-en-2-yl)-1′,2′,3′,4′-tetrahydro-[1,1′-biphenyl]-3-carboxamide] | 5.30 to 6.00 | 13.50 fold | < 5.30 | 
